# Assay results as given in patent publication US20180045715A1, “STRUCTURE AND FUNCTION OF THE SALICYCLIC ACID BINDING SITES ON HUMAN HMGB1 AND METHODS OF USE THEREOF FOR THE RATIONAL DESIGN OF BOTH SALICYCLIC ACID DERIVATIVES AND OTHER AGENTS THAT ALTER ANIMAL AND PLANT HMGBS ACTIVITIES” (Boyce Thompson Institute for Plant Research, Inc., priority 2015, published 2018).
# Like-named read-outs stand apart in the source and are kept apart here.
# Assays:
# [1] = biological target: T1, AtHMGB3 (Arabidopsis thaliana, UniProt P93047); test: Callose staining: AtHMGB3-induced callose deposition in Arabidopsis leaves; assay type: in vivo; set-up: providing a full length Arabidopsis thaliana HMGB1 or HMGB3 (AtHMGB1 or AtHMGB3) protein; 6x His; made in house; host or cells: Escherichia coli BL21; settings: 100 nM AtHMGB3, 15 h
# T1 sequence (P93047 1-141): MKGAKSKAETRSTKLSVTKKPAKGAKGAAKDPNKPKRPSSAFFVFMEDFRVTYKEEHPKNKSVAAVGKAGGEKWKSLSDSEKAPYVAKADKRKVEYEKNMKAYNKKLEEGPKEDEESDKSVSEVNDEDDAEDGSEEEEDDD
# Method: Arabidopsis leaves were collected 15 h after infiltration with 100 nM AtHMGB3 or 100 nM Pep1, and then immediately immersed in alcoholic lactophenol (phenol:glycerol:lactic acid:water:ethanol=1:1:1:1:8) to destain the chlorophyll. To remove the background fluorescence, destained leaves were treated with toluidine blue O solution (0.05% toluidine blue O, 0.1 M sodium acetate, pH 4.4) for 30 min, and then rinsed twice with 150 mM K2HPO4 (pH 9.5). Callose was stained with aniline blue solution (0.02% aniline blue, 150 mM K2HPO4, pH 9.5) for 30 min in the absence of light. The aniline blue-stained leaves were mounted with 25% glycerol and analyzed using a Leica DM5500 epifluorescence microscope. The number of callose loci was quantified using an ImageJ (NIH).
# [2] = biological target: T2, HMGB1 (Homo sapiens, UniProt P09429); test: Photoaffinity labeling of HMGB1 with 4AzSA, competition by SA; assay type: binding; settings: 0.1 mM 4AzSA, increasing concentrations of SA
# T2 construct: (i) full length: residues 2-215; 6x His (cleaved yes); made in house; host or cells: Escherichia coli BL21
# T2 sequence (P09429 2-215): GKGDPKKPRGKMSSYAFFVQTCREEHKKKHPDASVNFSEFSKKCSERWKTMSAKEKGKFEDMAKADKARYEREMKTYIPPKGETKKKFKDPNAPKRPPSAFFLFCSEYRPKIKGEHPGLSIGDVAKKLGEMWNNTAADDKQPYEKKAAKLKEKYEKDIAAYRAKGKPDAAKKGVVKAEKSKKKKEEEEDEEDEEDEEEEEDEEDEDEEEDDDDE
# Method: HMGB1's SA-binding activity was then assessed using photoaffinity-crosslinking. Recombinant HMGB1 was pre-incubated with or without photoreactive 4-azido SA (4AzSA) before exposure to UV irradiation (FIG. 1B).
# [3] = biological target: T3, HMGB1^RE (Homo sapiens, UniProt P09429); test: Chemotaxis assay (Boyden chambers): HMGB1^RE-elicited migration of mouse 3T3 fibroblasts; assay type: cell-based
# T3 construct: (i) full length: residues 2-215; 6x His (cleaved yes); made in house; host or cells: Escherichia coli BL21
# T3 sequence (P09429 2-215): T2 sequence (P09429 2-215)
# Method: (§1) Cell migration was assayed using Boyden chambers (Venereau et al., 2012). The downside of PVP-free polycarbonate filters (8 μm pores; Millipore) was coated with 50 μg/ml fibronectin (Sigma). Serum-free DMEM (negative control), DMEM containing 0.1 nM fMLP (positive control; Sigma), or DMEM containing 1 nM HMGB1^RE or HMGB1^SS were placed in the lower chamber, together with different concentrations of SA (Sigma). The mouse 3T3 fibroblast cells were cultured in DMEM media supplemented with 10% CS until 90% confluence, washed twice with PBS to eliminate any floating cells, and harvested with trypsin. 50,000 cells in 200 μL were added to the upper chamber, and cells were left to migrate for 3 h at 37° C. Non-migrating cells were removed with a cotton swab, and migrated cells were fixed with ethanol and stained with Giemsa.
# (§2) HMGB1^RE acts as a chemo-attractant that mediates migration of several cell types, including monocytes, fibroblasts, mesoangioblasts, smooth muscle cells, and colon cancer cells (Venereau et al., 2012). To determine whether SA alters HMGB 1's chemo-attractant activity, a chemotaxis assay was performed with mouse 3T3 fibroblasts.
# [4] = system: HMGB1^RE; test: as above; assay type: cell-based; settings: chemo-attractant and cytokine-inducing activities vs literature COX-2 inhibition
# Method: as §1, §2
# [5] = system: fMLP-induced migration of NIH/3T3 fibroblast cells; test: Chemotaxis assay: fMLP-induced fibroblast migration (specificity control); assay type: cell-based, mouse; settings: 0.1 nM fMLP
# Method: as §1, §2
# [6] = biological target: T4, full-length HMGB1 (Homo sapiens, UniProt P09429); test: Saturation transfer difference (STD) NMR; assay type: binding
# T4 construct: (i) full length: residues 2-215; hexaHis (TEV-cleavable) (N, cleaved yes); made in house
# T4 sequence (P09429 2-215): T2 sequence (P09429 2-215)
# Source text: NMR can be used to detect protein ligand interactions either by protein-detected experiments (Lepre, Moore et al. 2004), detecting changes in the frequencies of resonances of the protein sample due to ligand binding (protein-detected chemical shift perturbation (CSP) experiments), or by ligand-detected experiments (Lepre, Moore et al. 2004), in which NMR properties of the ligands due to ligand-protein interactions are detected. Protein-detected ligand binding experiments are usually done using isotope-enriched protein samples which can be studied by isotope-filtered NMR experiments, including for example ^15N-^1H-HSQC (Kay, Keifer et al. 1992). Ligand-detected experiments include the Waterlogsy experiment (Meyer and Peters 2003, Lepre, Moore et al. 2004, Furihata, Shimotakahara et al. 2008), which detects interactions in the ternary complex formed by the protein, the ligand, and one or more water molecules, and the Saturation Transfer Difference (STD) NMR experiments (Mayer and Meyer 2001, Lepre, Moore et al. 2004, Wang, Liu et al. 2004), which detects magnetization transfer from the protein to the ligand in the protein-ligand complex. The Waterlogsy experiment is a more sensitive experiment, typically employed to detect qualitatively if there is an interaction between protein and ligand. […]
smiles,measurement,setting,value
"O=C(O)c1ccccc1O [SA, salicylic acid]",effect on AtHMGB3-induced callose deposition,[1],completely suppressed
same,inhibition of crosslinking of 4AzSA to HMGB1,[2],effectively inhibited crosslinking
same,IC50,"[3]; mouse 3T3 fibroblasts, 1 nM HMGB1^RE, read-out: IC50, inhibition of HMGB1^RE-elicited migration of fibroblasts",3 to 4 µM
same,IC50,"[3]; read-out: IC50, inhibition of HMGB1^RE-induced chemotaxis",3.26 to 4.34 µM
same,"concentration inhibiting HMGB1 bioactivities, fold below that required to inhibit COX-2's enzyme activity",[4],10-50 fold
same,effect on fibroblast migration induced by fMLP,[5],did not affect
same,STD signal for binding to full-length HMGB1,"[6]; 20 μM HMGB1, pH 7.4, SA 6 mM, ac3AESA 0.6-5.8 mM",no STD signal is detected
same,ligand concentration at which an STD effect for HMGB1 binding is seen,"[6]; 20 μM HMGB1, SA tested as high as 6 mM",no STD effect
